Assay results: PubChem BioAssay (NCI)
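GI50: concentration for 50% inhibition of growth. TGI: total growth inhibition.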

How the values were obtained:
Experiment in all cases: NCI anticancer screen, dose series, 384-well format
HOP-62 NSCLC = system: HOP-62 NSCLC
T-47D breast = system: T-47D breast
NCI-H522 lung = system: NCI-H522 lung
ACHN renal = system: ACHN renal
HCT-116 colon = system: HCT-116 colon
M14 melanoma = system: M14 melanoma
NCI-H226 lung = system: NCI-H226 lung
HOP-92 NSCLC = system: HOP-92 NSCLC
NCI-H23 lung = system: NCI-H23 lung
CAKI-1 renal = system: CAKI-1 renal
SR leukemia = system: SR leukemia
K-562 leukemia = system: K-562 leukemia
MDA-MB-231 breast = system: MDA-MB-231 breast
UO-31 renal = system: UO-31 renal
HCT-15 colon = system: HCT-15 colon
EKVX NSCLC = system: EKVX NSCLC
NCI-H460 NSCLC = system: NCI-H460 NSCLC
OVCAR-4 ovarian = system: OVCAR-4 ovarian
BT-549 breast = system: BT-549 breast
MALME-3M melanoma = system: MALME-3M melanoma
KM12 colon = system: KM12 colon
OVCAR-3 ovarian = system: OVCAR-3 ovarian
IGROV1 ovarian = system: IGROV1 ovarian
COLO 205 colon = system: COLO 205 colon
RPMI-8226 leukemia = system: RPMI-8226 leukemia
MCF7 breast = system: MCF7 breast
OVCAR-8 ovarian = system: OVCAR-8 ovarian
NCI/ADR-RES ovarian = system: NCI/ADR-RES ovarian
U251 glioblastoma = system: U251 glioblastoma
MDA-MB-435 melanoma = system: MDA-MB-435 melanoma
TK-10 renal = system: TK-10 renal
PC-3 prostate = system: PC-3 prostate
A498 renal = system: A498 renal
HS 578T breast = system: HS 578T breast
MDA-MB-468 breast = system: MDA-MB-468 breast
LOX IMVI melanoma = system: LOX IMVI melanoma
MOLT-4 leukemia = system: MOLT-4 leukemia
SK-MEL-5 melanoma = system: SK-MEL-5 melanoma
DU-145 prostate = system: DU-145 prostate
SF-268 CNS = system: SF-268 CNS
SW-620 colon = system: SW-620 colon
SF-539 CNS = system: SF-539 CNS
SK-MEL-28 melanoma = system: SK-MEL-28 melanoma
786-0 renal = system: 786-0 renal
SNB-19 CNS = system: SNB-19 CNS
A549 NSCLC = system: A549 NSCLC
SN12C renal = system: SN12C renal
HL-60(TB) leukemia = system: HL-60(TB) leukemia
HT29 colon = system: HT29 colon
OVCAR-5 ovarian = system: OVCAR-5 ovarian
SNB-75 CNS = system: SNB-75 CNS
HCC-2998 colon = system: HCC-2998 colon
CCRF-CEM leukemia = system: CCRF-CEM leukemia
SF-295 CNS = system: SF-295 CNS
SK-OV-3 ovarian = system: SK-OV-3 ovarian
NCI-H322M lung = system: NCI-H322M lung
RXF 393 renal = system: RXF 393 renal
UACC-257 melanoma = system: UACC-257 melanoma

Question: Which GI50 (HOP-62 NSCLC) does the source give for `COc1cccc2cc(-c3nc(C4CCC(C(=O)O)CC4)n4ncnc(N)c34)[nH]c12` (stereo unspecified) here?
Answer: 1.11 µM

Question: What about the TGI (HOP-62 NSCLC) of the same molecule?
Answer: 5.42 µM

Question: What about the GI50 (T-47D breast) of the same molecule?
Answer: 0.158 µM

Question: What about the TGI (T-47D breast) of the same molecule?
Answer: 0.725 µM

Question: What about the GI50 (NCI-H522 lung) of the same molecule?
Answer: 0.4 µM

Question: And the TGI (NCI-H522 lung)?
Answer: > 100 µM

Question: What about the GI50 (ACHN renal) of the same molecule?
Answer: 1.18 µM

Question: What about the TGI (ACHN renal) of the same molecule?
Answer: 13 µM

Question: And the GI50 (HCT-116 colon)?
Answer: 4.13 µM

Question: What about the TGI (HCT-116 colon) of the same molecule?
Answer: 62.4 µM

Question: And the GI50 (M14 melanoma)?
Answer: 0.727 µM

Question: What about the TGI (M14 melanoma) of the same molecule?
Answer: 15.6 µM

Question: What about the GI50 (NCI-H226 lung) of the same molecule?
Answer: 1.15 µM

Question: What about the TGI (NCI-H226 lung) of the same molecule?
Answer: 6.68 µM

Question: And the GI50 (HOP-92 NSCLC)?
Answer: 1 µM

Question: And the TGI (HOP-92 NSCLC)?
Answer: 8.38 µM

Question: And the GI50 (NCI-H23 lung)?
Answer: 2.3 µM

Question: What about the TGI (NCI-H23 lung) of the same molecule?
Answer: 15 µM

Question: What about the GI50 (CAKI-1 renal) of the same molecule?
Answer: 1.59 µM

Question: And the TGI (CAKI-1 renal)?
Answer: 8.1 µM

Question: And the GI50 (SR leukemia)?
Answer: 0.293 µM

Question: And the TGI (SR leukemia)?
Answer: 1.25 µM

Question: What about the GI50 (K-562 leukemia) of the same molecule?
Answer: 2.61 µM

Question: What about the TGI (K-562 leukemia) of the same molecule?
Answer: 38 µM

Question: What about the GI50 (MDA-MB-231 breast) of the same molecule?
Answer: 0.811 µM

Question: And the TGI (MDA-MB-231 breast)?
Answer: > 100 µM

Question: What about the GI50 (UO-31 renal) of the same molecule?
Answer: 0.919 µM

Question: And the TGI (UO-31 renal)?
Answer: 15.8 µM

Question: And the GI50 (HCT-15 colon)?
Answer: 1.36 µM

Question: What about the TGI (HCT-15 colon) of the same molecule?
Answer: 57 µM

Question: And the GI50 (EKVX NSCLC)?
Answer: 1.1 µM

Question: What about the TGI (EKVX NSCLC) of the same molecule?
Answer: 11.6 µM

Question: What about the GI50 (NCI-H460 NSCLC) of the same molecule?
Answer: 0.39 µM

Question: What about the TGI (NCI-H460 NSCLC) of the same molecule?
Answer: 13 µM

Question: What about the GI50 (OVCAR-4 ovarian) of the same molecule?
Answer: 1.25 µM

Question: And the TGI (OVCAR-4 ovarian)?
Answer: 5.75 µM

Question: What about the GI50 (BT-549 breast) of the same molecule?
Answer: 1.17 µM

Question: And the TGI (BT-549 breast)?
Answer: 5.36 µM

Question: And the GI50 (MALME-3M melanoma)?
Answer: 0.19 µM

Question: And the TGI (MALME-3M melanoma)?
Answer: 0.878 µM

Question: What about the GI50 (KM12 colon) of the same molecule?
Answer: 0.964 µM

Question: What about the TGI (KM12 colon) of the same molecule?
Answer: > 100 µM

Question: And the GI50 (OVCAR-3 ovarian)?
Answer: 0.442 µM

Question: And the TGI (OVCAR-3 ovarian)?
Answer: 11.4 µM

Question: And the GI50 (IGROV1 ovarian)?
Answer: 0.36 µM

Question: And the TGI (IGROV1 ovarian)?
Answer: 4.38 µM

Question: And the GI50 (COLO 205 colon)?
Answer: 1.18 µM

Question: What about the TGI (COLO 205 colon) of the same molecule?
Answer: 26.6 µM

Question: And the GI50 (RPMI-8226 leukemia)?
Answer: 0.161 µM

Question: And the TGI (RPMI-8226 leukemia)?
Answer: 0.542 µM

Question: And the GI50 (MCF7 breast)?
Answer: 0.229 µM

Question: What about the TGI (MCF7 breast) of the same molecule?
Answer: > 100 µM

Question: And the GI50 (OVCAR-8 ovarian)?
Answer: 2.31 µM

Question: What about the TGI (OVCAR-8 ovarian) of the same molecule?
Answer: 49.5 µM

Question: And the GI50 (NCI/ADR-RES ovarian)?
Answer: 2.45 µM

Question: And the TGI (NCI/ADR-RES ovarian)?
Answer: 17 µM

Question: And the GI50 (U251 glioblastoma)?
Answer: 4.36 µM

Question: What about the TGI (U251 glioblastoma) of the same molecule?
Answer: > 100 µM

Question: What about the GI50 (MDA-MB-435 melanoma) of the same molecule?
Answer: 2.39 µM

Question: What about the TGI (MDA-MB-435 melanoma) of the same molecule?
Answer: 11.4 µM

Question: And the GI50 (TK-10 renal)?
Answer: 1.75 µM

Question: And the TGI (TK-10 renal)?
Answer: 11 µM

Question: What about the GI50 (PC-3 prostate) of the same molecule?
Answer: 0.56 µM

Question: And the TGI (PC-3 prostate)?
Answer: 5.83 µM

Question: And the GI50 (A498 renal)?
Answer: 0.539 µM

Question: And the TGI (A498 renal)?
Answer: 4.25 µM

Question: What about the GI50 (HS 578T breast) of the same molecule?
Answer: 0.302 µM

Question: And the TGI (HS 578T breast)?
Answer: 1.59 µM

Question: And the GI50 (MDA-MB-468 breast)?
Answer: 0.21 µM

Question: What about the TGI (MDA-MB-468 breast) of the same molecule?
Answer: 1.52 µM

Question: What about the GI50 (LOX IMVI melanoma) of the same molecule?
Answer: 2.69 µM

Question: What about the TGI (LOX IMVI melanoma) of the same molecule?
Answer: 10.3 µM

Question: What about the GI50 (MOLT-4 leukemia) of the same molecule?
Answer: 0.651 µM

Question: And the TGI (MOLT-4 leukemia)?
Answer: 10.2 µM

Question: And the GI50 (SK-MEL-5 melanoma)?
Answer: 0.518 µM

Question: And the TGI (SK-MEL-5 melanoma)?
Answer: 2.18 µM

Question: What about the GI50 (DU-145 prostate) of the same molecule?
Answer: 3.71 µM

Question: And the TGI (DU-145 prostate)?
Answer: > 100 µM

Question: And the GI50 (SF-268 CNS)?
Answer: 2.3 µM

Question: What about the TGI (SF-268 CNS) of the same molecule?
Answer: 31.3 µM

Question: What about the GI50 (SW-620 colon) of the same molecule?
Answer: 4.22 µM

Question: What about the TGI (SW-620 colon) of the same molecule?
Answer: > 100 µM

Question: And the GI50 (SF-539 CNS)?
Answer: 1.76 µM

Question: And the TGI (SF-539 CNS)?
Answer: 10.4 µM

Question: And the GI50 (SK-MEL-28 melanoma)?
Answer: 0.453 µM

Question: What about the TGI (SK-MEL-28 melanoma) of the same molecule?
Answer: 7.41 µM

Question: What about the GI50 ([…]-0 renal) of the same molecule?
Answer: 3.33 µM

Question: And the TGI (786-0 renal)?
Answer: 19.5 µM

Question: What about the GI50 (SNB-19 CNS) of the same molecule?
Answer: 8.96 µM

Question: And the TGI (SNB-19 CNS)?
Answer: > 100 µM

Question: What about the GI50 (A549 NSCLC) of the same molecule?
Answer: 2.9 µM

Question: What about the TGI (A549 NSCLC) of the same molecule?
Answer: 27.9 µM

Question: What about the GI50 (SN12C renal) of the same molecule?
Answer: 0.941 µM

Question: What about the TGI (SN12C renal) of the same molecule?
Answer: > 100 µM

Question: What about the GI50 (HL-60(TB) leukemia) of the same molecule?
Answer: 11.3 µM

Question: And the TGI (HL-60(TB) leukemia)?
Answer: 23.8 µM

Question: And the GI50 (HT29 colon)?
Answer: 8.51 µM

Question: And the TGI (HT29 colon)?
Answer: > 100 µM

Question: What about the GI50 (OVCAR-5 ovarian) of the same molecule?
Answer: 3.09 µM

Question: And the TGI (OVCAR-5 ovarian)?
Answer: 67.5 µM

Question: And the GI50 (SNB-75 CNS)?
Answer: 0.382 µM

Question: What about the TGI (SNB-75 CNS) of the same molecule?
Answer: 2.81 µM

Question: And the GI50 (HCC-2998 colon)?
Answer: 5.76 µM

Question: And the TGI (HCC-2998 colon)?
Answer: 44.1 µM

Question: What about the GI50 (CCRF-CEM leukemia) of the same molecule?
Answer: 0.738 µM

Question: And the TGI (CCRF-CEM leukemia)?
Answer: 10.5 µM

Question: And the GI50 (SF-295 CNS)?
Answer: 1.16 µM

Question: And the TGI (SF-295 CNS)?
Answer: 4.99 µM

Question: What about the GI50 (SK-OV-3 ovarian) of the same molecule?
Answer: 1.44 µM

Question: And the TGI (SK-OV-3 ovarian)?
Answer: 26.8 µM

Question: What about the GI50 (NCI-H322M lung) of the same molecule?
Answer: 0.426 µM

Question: And the TGI (NCI-H322M lung)?
Answer: 21.5 µM

Question: What about the GI50 (RXF 393 renal) of the same molecule?
Answer: 1.49 µM

Question: What about the TGI (RXF 393 renal) of the same molecule?
Answer: 6.54 µM

Question: What about the GI50 (UACC-257 melanoma) of the same molecule?
Answer: 3.13 µM

Question: And the TGI (UACC-257 melanoma)?
Answer: 27 µM
